# Test results reported in article PMC6479915, “Novel Benzene-Based Carbamates for AChE/BChE Inhibition: Synthesis and Ligand/Structure-Oriented SAR Study” (International Journal of Molecular Sciences, 2019).
# Key:
# AChE from electric eel = target: T1, AChE from electric eel (Electrophorus electricus, UniProt O42275); test: biochemical; conditions: mean ± SD, n = three experiments; 25 °C, PBS pH 7.4, substrate ATCh 40 μM
# T1 construct: purchased Sigma, St. Louis, MO, USA
# BChE from equine serum = target: T2, BChE from equine serum (Equus caballus, UniProt P81908); test: In vitro BChE inhibition, modified Ellman's method; type: biochemical; conditions: for SI (index selectivity) = IC50 (AChE)/IC50 (BChE): higher value = higher selectivity to BChE
# T2 construct: BChE (from equine serum); purchased Sigma, St. Louis, MO, USA; host or cells: equine serum
# T2 sequence (P81908 whole entry): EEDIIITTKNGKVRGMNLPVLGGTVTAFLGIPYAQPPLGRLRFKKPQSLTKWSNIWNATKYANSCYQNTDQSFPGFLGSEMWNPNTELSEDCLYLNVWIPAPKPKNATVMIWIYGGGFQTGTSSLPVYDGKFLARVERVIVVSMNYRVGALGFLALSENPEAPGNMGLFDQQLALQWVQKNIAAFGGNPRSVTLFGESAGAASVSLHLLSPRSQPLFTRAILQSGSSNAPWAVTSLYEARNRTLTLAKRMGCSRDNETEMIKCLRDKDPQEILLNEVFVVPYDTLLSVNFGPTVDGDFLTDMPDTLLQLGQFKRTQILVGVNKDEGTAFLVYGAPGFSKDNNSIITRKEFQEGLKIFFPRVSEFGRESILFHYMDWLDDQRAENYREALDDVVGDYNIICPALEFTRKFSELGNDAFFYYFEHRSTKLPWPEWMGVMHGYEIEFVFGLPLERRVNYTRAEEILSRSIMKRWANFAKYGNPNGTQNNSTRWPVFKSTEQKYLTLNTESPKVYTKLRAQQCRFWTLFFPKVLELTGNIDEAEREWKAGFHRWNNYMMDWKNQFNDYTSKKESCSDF
# T1 sequence (O42275 24-633): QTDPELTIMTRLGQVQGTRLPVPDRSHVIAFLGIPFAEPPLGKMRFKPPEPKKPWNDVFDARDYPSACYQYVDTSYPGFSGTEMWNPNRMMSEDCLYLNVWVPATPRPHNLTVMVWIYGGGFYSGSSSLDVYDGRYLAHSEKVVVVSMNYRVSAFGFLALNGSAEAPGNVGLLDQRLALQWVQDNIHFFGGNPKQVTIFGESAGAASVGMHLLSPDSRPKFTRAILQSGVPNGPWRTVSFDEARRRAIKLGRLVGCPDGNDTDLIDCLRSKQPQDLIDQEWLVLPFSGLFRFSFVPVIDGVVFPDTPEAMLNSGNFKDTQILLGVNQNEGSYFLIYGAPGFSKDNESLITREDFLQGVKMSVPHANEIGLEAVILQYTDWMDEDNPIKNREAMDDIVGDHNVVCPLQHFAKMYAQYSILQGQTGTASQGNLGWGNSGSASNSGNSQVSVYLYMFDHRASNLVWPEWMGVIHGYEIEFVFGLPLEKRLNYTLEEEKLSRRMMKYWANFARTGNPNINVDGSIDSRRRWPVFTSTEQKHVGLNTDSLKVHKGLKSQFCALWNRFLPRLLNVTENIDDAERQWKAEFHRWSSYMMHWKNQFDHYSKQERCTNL
SMILES,IC50 (AChE from electric eel) [µM],IC50 (BChE from equine serum) [µM],SI (index selectivity) = IC50 (AChE)/IC50 (BChE) (BChE from equine serum)
"CC(C(=O)c1ccc(Br)c2ccccc12)N(C)C(=O)Oc1ccccc1 (stereo not drawn) [Compound 38, Phenyl (1-(4-bromonaphthalen-1-yl)-1-oxopropan-2-yl)(methyl)carbamate]",61.7 ± 1.42,13 ± 0.28,4.76
"CC(C(=O)c1ccc(Br)cc1)N(C)C(=O)OCc1ccccc1 (stereo not drawn) [Compound 32, Benzyl (1-(4-bromophenyl)-1-oxopropan-2-yl)(methyl)carbamate]",32 ± 0.54,11.3 ± 0.15,2.84
"COc1ccc(C(=O)C(C)N(C)C(=O)OCc2ccccc2)cc1 (stereo not drawn) [Compound 29, Benzyl (1-(4-methoxyphenyl)-1-oxopropan-2-yl)(methyl)carbamate]",62.6 ± 0.65,57.39 ± 0.02,1.09
"CC(C(=O)c1cccc2ccccc12)N(C)C(=O)OCc1ccccc1 (stereo not drawn) [Compound 39, Benzyl methyl(1-(naphthalen-1-yl)-1-oxopropan-2-yl)carbamate]",105.2 ± 0.99,18.94 ± 0.18,5.55
COC(=O)N(C)C(C)C(=O)c1cccc2ccccc12 (stereo not drawn) [Compound 35],127 ± 1.74,150 ± 7.13,0.84
"CCCC(C(=O)c1ccccc1)N(C)C(=O)Oc1ccccc1 (stereo not drawn) [Compound 14, Phenyl methyl(1-oxo-1-phenylpentan-2-yl)carbamate]",97.97 ± 0.36,16.55 ± 0.13,5.92
"COc1ccc(C(=O)C(C)N(C)C(=O)Oc2ccccc2)cc1 (stereo not drawn) [Compound 17, Phenyl (1-(4-methoxyphenyl)-1-oxopropan-2-yl)(methyl)carbamate]",90.21 ± 0.73,106 ± 1.94,0.85
"Cc1cccc(C(=O)C(C)N(C)C(=O)OCc2ccccc2)c1 (stereo not drawn) [Compound 27, Benzyl methyl(1-oxo-1-(m-tolyl)propan-2-yl)carbamate]",83.3 ± 2.49,12.5 ± 0.24,6.67
"Cc1ccc(C(=O)C(C)N(C)C(=O)OCc2ccccc2)cc1C (stereo not drawn) [Compound 33, Benzyl (1-(3,4-dimethylphenyl)-1-oxopropan-2-yl)(methyl)carbamate]",76.8 ± 2.76,16.9 ± 0.22,4.55
"CCC(C(=O)c1ccccc1)N(CC)C(=O)OC (stereo not drawn) [Compound 3, Methyl ethyl(1-oxo-1-phenylbutan-2-yl)carbamate]",273.7 ± 2.16,363 ± 7.41,0.75
CC(C(=O)c1cccc2ccccc12)N(C)C(=O)Oc1ccccc1 (stereo not drawn) [Compound 36],99.6 ± 5.88,12.7 ± 0.19,7.83
"CCC(C(=O)c1ccccc1)N(CC)C(=O)OCc1ccccc1 (stereo not drawn) [Compound 25, Benzyl ethyl(1-oxo-1-phenylbutan-2-yl)carbamate]",119 ± 1.23,21.3 ± 0.48,5.61
"CC(C(=O)c1ccc(Cl)c2ccccc12)N(C)C(=O)OCc1ccccc1 (stereo not drawn) [Compound 40, Benzyl (1-(4-chloronaphthalen-1-yl)-1-oxopropan-2-yl)(methyl)carbamate]",103.3 ± 0.41,42.75 ± 0.31,2.42
"CCN(C(=O)OC)C(C)C(=O)c1ccccc1 (stereo not drawn) [Compound 1, Methyl ethyl(1-oxo-1-phenylpropan-2-yl)carbamate]",245.3 ± 0.75,227.9 ± 0.9,1.08
"COC(=O)N(C)C(C)C(=O)c1ccc(Br)cc1 (stereo not drawn) [Compound 9, Methyl (1-(4-bromophenyl)-1-oxopropan-2-yl)(methyl)carbamate]",282.7 ± 0.71,224.1 ± 2.19,1.26
"CCCC(C(=O)c1ccccc1)N(C)C(=O)OCc1ccccc1 (stereo not drawn) [Compound 26, Benzyl methyl(1-oxo-1-phenylpentan-2-yl)carbamate]",134.7 ± 0.7,16.3 ± 0.17,8.26
"COC(=O)N(C)C(C)C(=O)c1ccc2c(c1)OCO2 (stereo not drawn) [Compound 10, Methyl (1-(benzo[d][1,3]dioxol-5-yl)-1-oxopropan-2-yl)(methyl)carbamate]",225 ± 2.72,194.9 ± 1.93,1.16
"COC(=O)N(C)C(C)C(=O)c1ccc(Cl)cc1 (stereo not drawn) [Compound 8, Methyl (1-(4-chlorophenyl)-1-oxopropan-2-yl)(methyl)carbamate]",309 ± 6.16,132 ± 4.55,2.35
"CCN(C(=O)OCc1ccccc1)C(C)C(=O)c1ccccc1 (stereo not drawn) [Compound 23, Benzyl ethyl(1-oxo-1-phenylpropan-2-yl)carbamate]",158.4 ± 0.87,11.37 ± 0.05,13.93
"CCN(C(=O)Oc1ccccc1)C(C)C(=O)c1ccccc1 (stereo not drawn) [Compound 11, Phenyl ethyl(1-oxo-1-phenylpropan-2-yl)carbamate]",167 ± 1.75,27.6 ± 0.55,6.03
"Cc1cccc(C(=O)C(C)N(C)C(=O)Oc2ccccc2)c1 (stereo not drawn) [Compound 15, Phenyl methyl(1-oxo-1-(m-tolyl)propan-2-yl)carbamate]",166 ± 2.75,48.29 ± 0.31,3.43
"CC(C(=O)c1ccc(Br)c2ccccc12)N(C)C(=O)OCc1ccccc1 (stereo not drawn) [Compound 41, Benzyl (1-(4-bromonaphthalen-1-yl)-1-oxopropan-2-yl)(methyl)carbamate]",128.3 ± 0.88,236 ± 16.3,0.54
"CC(C(=O)c1cccc(Cl)c1)N(C)C(=O)OCc1ccccc1 (stereo not drawn) [Compound 28, Benzyl (1-(3-chlorophenyl)-1-oxopropan-2-yl)(methyl)carbamate]",84.4 ± 2.27,5.51 ± 0.2,15.31
"CC(C(=O)c1ccc(Br)cc1)N(C)C(=O)Oc1ccccc1 (stereo not drawn) [Compound 20, Phenyl (1-(4-bromophenyl)-1-oxopropan-2-yl)(methyl)carbamate]",51.5 ± 1.38,44.1 ± 1.71,1.17
"Cc1ccc(C(=O)C(C)N(C)C(=O)Oc2ccccc2)cc1 (stereo not drawn) [Compound 18, Phenyl methyl(1-oxo-1-(p-tolyl)propan-2-yl)carbamate]",139 ± 1.45,87.6 ± 2.37,1.58
"CCC(C(=O)c1ccccc1)N(C)C(=O)Oc1ccccc1 (stereo not drawn) [Compound 12, Phenyl methyl(1-oxo-1-phenylbutan-2-yl)carbamate]",179 ± 6.21,53 ± 1.06,3.38
"CC(C(=O)c1ccc(Cl)cc1)N(C)C(=O)OCc1ccccc1 (stereo not drawn) [Compound 31, Benzyl (1-(4-chlroophenyl)-1-oxopropan-2-yl)(methyl)carbamate]",52.83 ± 0.34,7.02 ± 0.15,7.53
"CC(C(=O)c1ccc2c(c1)OCO2)N(C)C(=O)Oc1ccccc1 (stereo not drawn) [Compound 22, Phenyl (1-(benzo[d][1,3]dioxol-5-yl)-1-oxopropan-2-yl)(methyl)carbamate]",84 ± 0.43,53.6 ± 0.72,1.57
